Measurements from patent US11028072B2, “2,4-diamino-6-ethylpyrimidine derivatives with antimalarial activities against Plasmodium falciparum” (National Science and Technology Development Agency, priority 2015, dated 2021).
Where a name gives a salt, the structure may show the parent alone. Read-outs that look alike come from different tables or passages of the source.

What was measured:
wild type (WT) pfDHFR = wild type (WT) pfDHFR (Plasmodium falciparum, UniProt P13922, N108S/R59C); experiment: Inhibition of wild type pfDHFR (Ki); assay type: biochemical
Protocol: (§1) The synthesized 2,4-diamino-6-ethylpyrimdine derivatives as the hydrochloride salts were tested for the activities against Plasmodium falciparum (P. falciparum) according to the standard methods. These include the inhibition of dihydrofolate reductase (DHFR) enzymes of P. falciparum including, wild type (WT) and quadruple mutants (N51IC59RS108NI164L) (QM). The inhibition was expressed as inhibition constants (Ki) in nano molar (nM).

[1] = tested on: P. falciparum TM4/8.2 (wild type); experiment: microbe, parasite or virus in culture; assay type: cell-based, Plasmodium falciparum; settings: Plasmodium falciparum, read-out: IC50 P. falciparum TM4/8.2 (WT)
Source text: (§2) In Vitro Antimalarial Activites Against P. falciparum and Cytotoxicity Towards Mammalian Cells (Vero Cells)

[2] = tested on: P. falciparum V1/S (N51I + C59R + S108 + I164L); experiment: microbe, parasite or virus in culture; assay type: cell-based, Plasmodium falciparum; settings: Plasmodium falciparum, read-out: IC50 P. falciparum V1/S
Source text: as §2

[3] = target: quadruple mutant N51I + C59R + S108N + I164L (QM) pfDHFR (Plasmodium falciparum, UniProt P13922, I164L/N51I); experiment: Inhibition of quadruple mutant pfDHFR (Ki); assay type: biochemical
Protocol: as §1

[4] = target: T1, Human dihydrofolate reductase (hDHFR) (Homo sapiens, UniProt P00374); experiment: Inhibition of human dihydrofolate reductase (Ki); assay type: biochemical; settings: human DHFR; hydrochloride salts
T1 sequence (P00374 1-187): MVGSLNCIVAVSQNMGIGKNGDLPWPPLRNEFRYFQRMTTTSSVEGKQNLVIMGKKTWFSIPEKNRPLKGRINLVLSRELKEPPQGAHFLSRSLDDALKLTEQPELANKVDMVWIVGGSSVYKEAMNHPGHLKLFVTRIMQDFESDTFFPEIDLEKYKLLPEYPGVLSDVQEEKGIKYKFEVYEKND

in vitro = settings: African green monkey
Source text: as §2

[5] = in vitro, wild-type strain TM4/8.2
[6] = in vitro, quadruple mutant strain V1/S

quadruple mutant N51I + C59R + S108N + I164L (QM) pfDHFR, sequence (P13922 whole entry N51I/I164L): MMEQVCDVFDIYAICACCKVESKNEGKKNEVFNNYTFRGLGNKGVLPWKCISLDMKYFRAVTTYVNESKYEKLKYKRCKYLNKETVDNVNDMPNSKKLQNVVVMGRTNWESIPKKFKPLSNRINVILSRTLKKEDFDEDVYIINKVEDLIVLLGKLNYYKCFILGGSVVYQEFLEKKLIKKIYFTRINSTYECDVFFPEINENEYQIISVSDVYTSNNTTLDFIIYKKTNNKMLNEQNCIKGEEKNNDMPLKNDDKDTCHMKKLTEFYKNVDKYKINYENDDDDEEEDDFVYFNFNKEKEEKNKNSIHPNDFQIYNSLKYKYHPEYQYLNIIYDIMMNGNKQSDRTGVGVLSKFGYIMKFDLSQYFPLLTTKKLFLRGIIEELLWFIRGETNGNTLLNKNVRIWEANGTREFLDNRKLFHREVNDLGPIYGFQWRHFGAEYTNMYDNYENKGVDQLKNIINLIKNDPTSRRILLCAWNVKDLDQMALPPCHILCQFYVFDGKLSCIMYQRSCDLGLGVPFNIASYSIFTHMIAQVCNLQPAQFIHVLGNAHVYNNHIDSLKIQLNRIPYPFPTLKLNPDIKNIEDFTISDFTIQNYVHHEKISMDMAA
wild type (WT) pfDHFR, sequence (P13922 whole entry R59C/N108S): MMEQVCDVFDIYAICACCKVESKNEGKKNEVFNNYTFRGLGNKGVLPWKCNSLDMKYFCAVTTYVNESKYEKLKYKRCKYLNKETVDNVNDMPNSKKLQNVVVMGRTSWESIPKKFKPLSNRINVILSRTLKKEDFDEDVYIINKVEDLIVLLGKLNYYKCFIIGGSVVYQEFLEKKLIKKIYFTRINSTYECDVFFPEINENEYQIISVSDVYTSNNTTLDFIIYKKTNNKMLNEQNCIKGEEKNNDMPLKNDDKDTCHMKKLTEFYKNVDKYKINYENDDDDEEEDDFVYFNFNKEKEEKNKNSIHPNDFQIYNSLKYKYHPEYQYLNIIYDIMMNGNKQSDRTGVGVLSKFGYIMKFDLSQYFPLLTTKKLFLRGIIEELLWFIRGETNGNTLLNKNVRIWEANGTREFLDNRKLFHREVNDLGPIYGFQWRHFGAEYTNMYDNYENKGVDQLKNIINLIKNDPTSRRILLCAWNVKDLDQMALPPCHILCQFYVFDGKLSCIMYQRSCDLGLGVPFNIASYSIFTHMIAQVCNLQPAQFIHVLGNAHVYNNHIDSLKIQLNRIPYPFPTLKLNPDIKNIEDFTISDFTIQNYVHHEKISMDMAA

| SMILES | melting point [°C] | Ki (wild type (WT) pfDHFR) [µM] | Ki [3] [µM] | IC50 (in vitro) [µM] | other results |
| --- | --- | --- | --- | --- | --- |
| CCc1nc(N)nc(N)c1OCc1cc(-c2cccc(OC)c2)no1 (as salt: hydrochloride) [Compound 38] | 211.5 to 212.5 |  |  |  |  |
| CCc1nc(N)nc(N)c1OCc1cc(-c2cccc([N+](=O)[O-])c2)no1 (as salt: hydrochloride) [Compound 39] | 179.5 to 181.5 |  |  |  |  |
| CCc1nc(N)nc(N)c1OCc1cc(-c2cccc(C(=O)O)c2)no1 (as salt: hydrochloride) [Compound 40] | 192 to 194 |  |  |  |  |
| CCc1nc(N)nc(N)c1OCc1cc(-c2ccc(C(F)(F)F)cc2)no1 (as salt: hydrochloride) [Compound 41] | 173 to 174.5 |  |  |  |  |
| CCc1nc(N)nc(N)c1OCc1cc(-c2ccc(OC)cc2)no1 (as salt: hydrochloride) [Compound 42] | 214 to 216 |  |  |  |  |
| CCc1nc(N)nc(N)c1OCc1cc(-c2ccc([N+](=O)[O-])cc2)no1 (as salt: hydrochloride) [Compound 43] | 216 to 218 |  |  |  |  |
| CCc1nc(N)nc(N)c1OCc1cc(-c2ccc(C(=O)O)cc2)no1 (as salt: hydrochloride) [Compound 44] | 242 to 244 |  |  |  |  |
| CCc1nc(N)nc(N)c1OCCCc1cc(-c2ccc(Cl)cc2)no1 (as salt: hydrochloride) [Compound 45] | 231.5 to 232.5 |  |  |  |  |
| CCc1nc(N)nc(N)c1OCCCc1cc(-c2cccc(C(F)(F)F)c2)no1 (as salt: hydrochloride) [Compound 46] | 216.5 to 218 |  |  |  |  |
| CCc1nc(N)nc(N)c1OCCCc1cc(-c2cccc(C#N)c2)no1 (as salt: hydrochloride) [Compound 47] | 252 to 253 |  |  |  |  |
| CCc1nc(N)nc(N)c1OCCCc1cc(-c2cccc(C(=O)OC)c2)no1 (as salt: hydrochloride) [Compound 48] | 188 to 189.5 |  |  |  |  |
| CCc1nc(N)nc(N)c1OCc1coc(-c2ccccc2)n1 (as salt: hydrochloride) [Compound 50] | 231 to 232 |  |  |  |  |
| CCc1nc(N)nc(N)c1OCc1coc(-c2cccc(C)c2)n1 (as salt: hydrochloride) [Compound 51] | 225 to 226 |  |  |  |  |
| CCc1nc(N)nc(N)c1OCc1coc(-c2cccc([N+](=O)[O-])c2)n1 (as salt: hydrochloride) [Compound 52] | 221.5 to 222.5 |  |  |  |  |
| CCc1nc(N)nc(N)c1OCc1coc(-c2ccc(Cl)cc2)n1 (as salt: hydrochloride) [Compound 55] | 239 to 240 |  |  |  |  |
| CCc1nc(N)nc(N)c1OCCc1coc(-c2ccccc2)n1 (as salt: hydrochloride) [Compound 58] | 254.5 to 255.5 |  |  |  |  |
| CCc1nc(N)nc(N)c1OCCc1coc(-c2ccc(C(=O)O)cc2)n1 (as salt: hydrochloride) [Compound 59] | 330 to 332 |  |  |  |  |
| CCc1nc(N)nc(N)c1OCc1csc(-c2ccccc2)n1 (as salt: hydrochloride) [Compound 60] | 220 to 222 |  |  |  |  |
| CCc1nc(N)nc(N)c1OCc1csc(-c2cccc(C)c2)n1 (as salt: hydrochloride) [Compound 61] | 232 to 233 |  |  |  |  |
| CCc1nc(N)nc(N)c1OCc1csc(-c2cccc([N+](=O)[O-])c2)n1 (as salt: hydrochloride) [Compound 62] | 235 to 236.5 |  |  |  |  |
| CCc1nc(N)nc(N)c1OCc1csc(-c2cccc(C(=O)OC)c2)n1 (as salt: hydrochloride) [Compound 65] | 224.5 to 226.5 |  |  |  |  |
| CCc1nc(N)nc(N)c1OCc1csc(-c2ccc(C)cc2)n1 (as salt: hydrochloride) [Compound 67] | 235 to 236 |  |  |  |  |
| CCc1nc(N)nc(N)c1OCc1csc(-c2ccc(OC)cc2)n1 (as salt: hydrochloride) [Compound 68] | 228 to 229 |  |  |  |  |

| SMILES | melting point [°C] | Ki (wild type (WT) pfDHFR) [µM] | Ki [3] [µM] | IC50 (in vitro) [µM] | other results |
| --- | --- | --- | --- | --- | --- |
| CCc1nc(N)nc(N)c1OCc1csc(-c2ccc(F)cc2)n1 (as salt: hydrochloride) [Compound 69] | 226 to 227 |  |  |  |  |
| CCc1nc(N)nc(N)c1OCc1csc(-c2ccc(Cl)cc2)n1 (as salt: hydrochloride) [Compound 70] | 230 to 232 |  |  |  |  |
| CCc1nc(N)nc(N)c1OCc1csc(-c2ccc(Br)cc2)n1 (as salt: hydrochloride) [Compound 71] | 236 to 238 |  |  |  |  |
| CCc1nc(N)nc(N)c1OCc1csc(-c2ccc(C(=O)OC)cc2)n1 (as salt: hydrochloride) [Compound 74] | 217 to 219 |  |  |  |  |
| CCc1nc(N)nc(N)c1OCc1csc(-c2ccc(C(=O)O)cc2)n1 (as salt: hydrochloride) [Compound 75] | 213 to 214 |  |  |  |  |
| CCc1nc(N)nc(N)c1OCCc1csc(-c2ccccc2)n1 (as salt: hydrochloride) [Compound 76] | 215 to 217 |  |  |  |  |
| CCc1nc(N)nc(N)c1-c1cn(-c2ccccc2)nn1 [Compound 1] |  | 0.0497 ± 0.00418 | 6.02 ± 0.772 | > 50 | IC50 [1, 5]: > 50 µM; IC50 [2, 6]: > 50 µM; Ki hDHFR [4]: High |
| CCc1nc(N)nc(N)c1-c1cn(Cc2ccccc2)nn1 [Compound 3] |  | 0.0114 ± 0.00081 | 0.0139 ± 0.00198 | > 50 | IC50 [1]: 3.57 ± 1.25 µM; IC50 [2]: 19.9 ± 7.03 µM; Ki [4]: 3.14 ± 0.242 µM |
| CCc1nc(N)nc(N)c1-c1cn(Cc2ccc(C(=O)OC)cc2)nn1 [Compound 4] |  | 0.0033 ± 0.00036 | 0.0052 ± 0.00062 | > 25 | IC50 [1]: 5.53 ± 0.84 µM; IC50 [2]: > 25 µM; Ki [4]: 0.555 ± 0.0201 µM |
| CCc1nc(N)nc(N)c1-c1cn(Cc2ccc(C(=O)O)cc2)nn1 [Compound 5] |  | 0.00631 ± 0.0004 | 0.00761 ± 0.00066 | > 10 | IC50 [1, 5]: 7.95 ± 1.38 µM; IC50 [2, 6]: > 10 µM; Ki [4]: 0.196 ± 0.0207 µM |
| CCc1nc(N)nc(N)c1-c1cn(Cc2ccc(OC(=O)N(c3ccccc3)c3ccccc3)cc2)nn1 [Compound 6] |  | 0.0103 ± 0.00169 | 0.0175 ± 0.00219 | > 25 | IC50 [1, 5]: 5.59 ± 1.54 µM; IC50 [2, 6]: 4.31 ± 0.93 µM; Ki hDHFR [4]: High |
| CCc1nc(N)nc(N)c1-c1cn(CCc2ccccc2)nn1 [Compound 7] |  | 0.00224 ± 0.0001 | 0.0701 ± 0.00692 | > 50 | IC50 [1]: 2.62 ± 0.33 µM; IC50 [2]: > 50 µM; Ki [4]: 3.22 ± 0.0862 µM |
| CCc1nc(N)nc(N)c1-c1cn(CCCc2ccccc2)nn1 [Compound 8] |  | 0.00282 ± 0.0001 | 0.0498 ± 0.00189 | > 50 | IC50 [1]: 5.58 ± 0.67 µM; IC50 [2]: 32.3 ± 3.06 µM; Ki [4]: 3.68 ± 0.48 µM |
| CCc1nc(N)nc(N)c1-c1cn(CCOc2ccc(Cl)cc2)nn1 [Compound 9] |  | 0.00114 ± 6e-05 | 0.0108 ± 0.00102 | 47.4 ± 11.6 | IC50 [1]: 2.24 ± 0.6 µM; IC50 [2]: 15.9 ± 5.63 µM; Ki [4]: 1.67 ± 0.0595 µM |
| CCc1nc(N)nc(N)c1-c1cn(CCOc2ccc(C(=O)OC)cc2)nn1 [Compound 10] |  | 0.00101 ± 4e-05 | 0.00696 ± 0.00112 | 38.9 ± 2.14 | IC50 [1, 5]: 0.88 ± 0.36 µM; IC50 [2, 6]: 21 ± 4.49 µM; Ki hDHFR [4]: High |
| CCc1nc(N)nc(N)c1-c1cn(CCCOc2ccc(Cl)cc2)nn1 [Compound 11] |  | 0.00112 ± 8e-05 | 0.0321 ± 0.00831 | 48.7 ± 13.6 | IC50 [1, 5]: 2.42 ± 0.55 µM; IC50 [2, 6]: > 50 µM; Ki [4]: 1.12 ± 0.0914 µM |
| CCc1nc(N)nc(N)c1-c1cn(CCCOc2ccc(C(=O)OC)cc2)nn1 [Compound 12] |  | 0.00082 ± 6e-05 | 0.034 ± 0.00551 | 47.6 ± 6.27 | IC50 [1]: 0.97 ± 0.4 µM; IC50 [2]: > 50 µM; Ki [4]: 0.875 ± 0.0279 µM |
| CCc1nc(N)nc(N)c1OCc1cn(-c2ccccc2)nn1 [Compound 13] |  | 0.00327 ± 0.00028 | 0.377 ± 0.0205 | > 25 | IC50 [1, 5]: 5.73 ± 0.35 µM; IC50 [2, 6]: > 25 µM; Ki hDHFR [4]: High |
| CCc1nc(N)nc(N)c1OCc1cn(-c2cccc([N+](=O)[O-])c2)nn1 [Compound 14] |  | 0.00862 ± 0.00115 | 0.237 ± 0.0417 | > 50 | IC50 [1, 5]: 3.42 ± 0.61 µM; IC50 [2, 6]: 4.43 ± 1.13 µM; Ki [4]: > 500 µM |
| CCc1nc(N)nc(N)c1OCc1cn(-c2cccc(C(=O)OC)c2)nn1 [Compound 15] |  | 0.00185 ± 0.00036 | 0.208 ± 0.0166 | > 50 | IC50 [1, 5]: 0.73 ± 0.23 µM; IC50 [2, 6]: 17.6 ± 1.5 µM; Ki hDHFR [4]: High |
| CCc1nc(N)nc(N)c1OCc1cn(-c2ccc([N+](=O)[O-])cc2)nn1 [Compound 17] |  | 0.0427 ± 0.00099 | 1.99 ± 0.318 | > 50 | IC50 [1, 5]: 4.25 ± 1.37 µM; IC50 [2, 6]: 14.9 ± 3.82 µM; Ki [4]: > 500 µM |
| CCc1nc(N)nc(N)c1OCc1cn(-c2ccc(C(=O)OC)cc2)nn1 [Compound 18] |  | 0.00654 ± 0.00125 | 0.833 ± 0.045 | > 50 | IC50 [1, 5]: 10.5 ± 3.1 µM; IC50 [2, 6]: 13.6 ± 3.22 µM; Ki hDHFR [4]: High |
| CCc1nc(N)nc(N)c1OCc1cc(-c2ccc(C(F)(F)F)cc2)no1 [Compound 41] |  | 0.00429 ± 0.00031 |  | > 10 | IC50 [1, 5]: 6.78 ± 2.21 µM; IC50 [2, 6]: > 10 µM; Ki [4]: > 100 µM |
